Assay results from ChEMBL document CHEMBL1136068 (Bioorg Med Chem Lett, 2003).
Active and inactive are the calls of the source. The rule behind the calls is not given here.

Legend:
[1] = target: T1, Mineralocorticoid receptor (Homo sapiens) (UniProt P08235); assay: Antagonist efficacy at mineralocorticoid receptor (hMR); assay type: functional
T1 sequence (whole entry): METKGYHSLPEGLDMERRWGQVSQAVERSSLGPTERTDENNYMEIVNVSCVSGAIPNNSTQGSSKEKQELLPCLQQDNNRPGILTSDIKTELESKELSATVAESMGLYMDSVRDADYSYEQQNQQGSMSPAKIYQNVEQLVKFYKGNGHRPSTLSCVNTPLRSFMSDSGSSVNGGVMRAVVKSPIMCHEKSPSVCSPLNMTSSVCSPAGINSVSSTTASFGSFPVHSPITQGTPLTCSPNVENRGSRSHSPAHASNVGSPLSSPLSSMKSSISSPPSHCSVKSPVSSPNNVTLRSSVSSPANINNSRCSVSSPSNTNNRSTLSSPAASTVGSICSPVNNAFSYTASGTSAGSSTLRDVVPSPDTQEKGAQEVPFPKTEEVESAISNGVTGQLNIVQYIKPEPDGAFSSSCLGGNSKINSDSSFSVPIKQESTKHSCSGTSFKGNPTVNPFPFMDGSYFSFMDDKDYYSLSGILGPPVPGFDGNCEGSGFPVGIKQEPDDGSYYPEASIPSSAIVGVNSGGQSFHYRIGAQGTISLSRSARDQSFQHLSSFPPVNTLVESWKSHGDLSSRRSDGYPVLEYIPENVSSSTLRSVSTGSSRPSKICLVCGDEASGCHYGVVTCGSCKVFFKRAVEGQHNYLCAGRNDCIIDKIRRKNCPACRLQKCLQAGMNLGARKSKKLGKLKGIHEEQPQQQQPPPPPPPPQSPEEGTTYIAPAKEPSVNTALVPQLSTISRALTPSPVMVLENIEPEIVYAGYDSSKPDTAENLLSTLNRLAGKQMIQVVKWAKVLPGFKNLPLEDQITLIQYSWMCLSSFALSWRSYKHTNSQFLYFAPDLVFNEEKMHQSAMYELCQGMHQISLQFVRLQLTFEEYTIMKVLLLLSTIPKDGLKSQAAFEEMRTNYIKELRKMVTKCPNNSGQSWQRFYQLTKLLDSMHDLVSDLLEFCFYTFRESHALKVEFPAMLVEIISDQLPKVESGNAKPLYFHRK

Androgen receptor = target: T2, Androgen receptor (Homo sapiens, UniProt P10275); assay: Antagonist activity against human Androgen receptor; assay type: functional
T2 sequence (P10275 whole entry): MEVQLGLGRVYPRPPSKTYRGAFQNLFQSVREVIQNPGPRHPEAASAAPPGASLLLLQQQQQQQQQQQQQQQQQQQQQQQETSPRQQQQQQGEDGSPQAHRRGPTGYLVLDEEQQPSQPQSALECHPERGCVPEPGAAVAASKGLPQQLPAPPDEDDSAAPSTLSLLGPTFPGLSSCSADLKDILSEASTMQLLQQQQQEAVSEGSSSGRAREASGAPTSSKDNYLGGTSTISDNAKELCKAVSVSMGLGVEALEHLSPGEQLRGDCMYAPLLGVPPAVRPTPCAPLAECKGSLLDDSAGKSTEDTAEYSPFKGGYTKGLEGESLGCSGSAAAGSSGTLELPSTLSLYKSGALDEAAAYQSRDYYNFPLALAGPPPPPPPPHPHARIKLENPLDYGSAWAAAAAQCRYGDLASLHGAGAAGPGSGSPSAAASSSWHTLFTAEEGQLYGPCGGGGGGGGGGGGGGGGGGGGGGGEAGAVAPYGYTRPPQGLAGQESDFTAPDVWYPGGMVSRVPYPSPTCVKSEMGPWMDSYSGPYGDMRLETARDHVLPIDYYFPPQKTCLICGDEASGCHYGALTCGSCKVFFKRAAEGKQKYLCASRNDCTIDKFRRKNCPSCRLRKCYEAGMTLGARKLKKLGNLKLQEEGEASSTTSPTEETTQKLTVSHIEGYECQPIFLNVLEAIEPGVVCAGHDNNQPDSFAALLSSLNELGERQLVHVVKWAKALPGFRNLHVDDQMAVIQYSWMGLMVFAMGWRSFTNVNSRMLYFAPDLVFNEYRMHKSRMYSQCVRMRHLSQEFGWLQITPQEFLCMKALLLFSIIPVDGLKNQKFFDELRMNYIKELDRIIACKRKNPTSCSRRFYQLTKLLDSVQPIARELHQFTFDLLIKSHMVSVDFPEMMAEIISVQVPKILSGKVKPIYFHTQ

[2] = target: T3, Progesterone receptor (Homo sapiens) (UniProt P06401); assay: Antagonistic efficacy towards human progesterone receptor (hPR) using the cotransfection assay in CV-1 cells; Not active; assay type: functional, cell-based
T3 sequence (whole entry): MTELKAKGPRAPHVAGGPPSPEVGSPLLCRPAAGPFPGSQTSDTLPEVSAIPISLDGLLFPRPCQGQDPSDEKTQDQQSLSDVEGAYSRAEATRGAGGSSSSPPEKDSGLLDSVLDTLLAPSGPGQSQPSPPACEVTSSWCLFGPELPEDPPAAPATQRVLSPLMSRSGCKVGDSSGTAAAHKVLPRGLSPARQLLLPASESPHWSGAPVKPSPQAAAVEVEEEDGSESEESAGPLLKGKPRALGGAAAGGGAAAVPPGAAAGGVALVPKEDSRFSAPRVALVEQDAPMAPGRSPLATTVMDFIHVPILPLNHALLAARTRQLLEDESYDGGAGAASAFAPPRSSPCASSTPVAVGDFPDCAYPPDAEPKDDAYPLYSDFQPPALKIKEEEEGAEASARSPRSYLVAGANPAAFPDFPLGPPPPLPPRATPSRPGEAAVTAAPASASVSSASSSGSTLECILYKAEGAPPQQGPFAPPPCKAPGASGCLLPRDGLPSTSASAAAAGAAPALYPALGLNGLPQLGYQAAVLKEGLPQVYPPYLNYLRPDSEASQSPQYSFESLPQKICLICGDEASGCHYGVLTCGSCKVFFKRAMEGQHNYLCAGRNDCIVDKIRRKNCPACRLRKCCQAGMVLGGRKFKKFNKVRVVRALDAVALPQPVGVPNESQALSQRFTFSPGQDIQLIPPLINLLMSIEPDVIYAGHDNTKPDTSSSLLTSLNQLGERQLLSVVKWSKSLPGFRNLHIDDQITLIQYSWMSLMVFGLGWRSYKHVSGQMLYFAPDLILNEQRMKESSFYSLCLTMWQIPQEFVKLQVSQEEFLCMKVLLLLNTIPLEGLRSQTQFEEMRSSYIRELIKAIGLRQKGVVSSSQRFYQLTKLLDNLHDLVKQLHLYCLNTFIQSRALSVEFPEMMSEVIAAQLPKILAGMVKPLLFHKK

[3] = target: T3, Progesterone receptor (Homo sapiens); assay: Agonist efficacy towards human progesterone receptor (hPR) using the cotransfection assay in CV-1 cells; assay type: functional, cell-based
Progesterone receptor [4] = target: T4, Progesterone receptor (Homo sapiens, UniProt P06401); assay: Effective concentration for agonist activity towards human progesterone receptor (hPR) using the cotransfection assay in CV-1 cells; assay type: functional, cell-based
T4 sequence (P06401 whole entry): T3 sequence (whole entry)

Glucocorticoid receptor = target: T5, Glucocorticoid receptor (Homo sapiens, UniProt P04150); assay: Antagonist activity at glucocorticoid receptor; assay type: functional
T5 sequence (P04150 whole entry): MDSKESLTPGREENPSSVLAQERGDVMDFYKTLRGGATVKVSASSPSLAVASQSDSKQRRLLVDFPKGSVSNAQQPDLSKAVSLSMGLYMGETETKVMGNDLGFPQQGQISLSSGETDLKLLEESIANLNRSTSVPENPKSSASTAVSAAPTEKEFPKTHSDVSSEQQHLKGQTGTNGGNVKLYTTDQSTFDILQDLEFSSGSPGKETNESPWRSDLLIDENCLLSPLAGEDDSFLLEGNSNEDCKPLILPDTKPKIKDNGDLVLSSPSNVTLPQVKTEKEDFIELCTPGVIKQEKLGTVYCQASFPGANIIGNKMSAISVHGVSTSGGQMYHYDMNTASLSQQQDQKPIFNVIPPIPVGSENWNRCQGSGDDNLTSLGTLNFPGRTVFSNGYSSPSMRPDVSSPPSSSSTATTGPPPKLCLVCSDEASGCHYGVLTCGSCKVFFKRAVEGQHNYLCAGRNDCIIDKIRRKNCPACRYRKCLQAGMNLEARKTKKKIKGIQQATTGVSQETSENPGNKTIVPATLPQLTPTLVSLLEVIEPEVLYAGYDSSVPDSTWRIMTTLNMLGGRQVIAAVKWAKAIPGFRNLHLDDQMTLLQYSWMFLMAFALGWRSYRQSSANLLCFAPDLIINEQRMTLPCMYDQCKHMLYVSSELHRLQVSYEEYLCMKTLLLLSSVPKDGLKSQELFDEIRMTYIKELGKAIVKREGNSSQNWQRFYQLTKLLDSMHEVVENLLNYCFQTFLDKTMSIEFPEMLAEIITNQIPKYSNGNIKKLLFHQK

Progesterone receptor [5] = target: T4, Progesterone receptor; assay: Inhibitory concentration for antagonistic activity towards human progesterone receptor (hPR) using the cotransfection assay in CV-1 cells; Not active; assay type: functional, cell-based
[6] = target: T6, Mineralocorticoid receptor (Homo sapiens, UniProt P08235); assay: Antagonist activity at mineralocorticoid receptor (hMR); assay type: functional
T6 sequence (P08235 whole entry): T1 sequence (whole entry)

Progesterone receptor [7] = target: T4, Progesterone receptor; assay: Inhibitory concentration for antagonistic activity towards human progesterone receptor (hPR) using the cotransfection assay in CV-1 cells; assay type: functional, cell-based
[8] = target: T3, Progesterone receptor (Homo sapiens); assay: Antagonistic efficacy towards human progesterone receptor (hPR) using the cotransfection assay in CV-1 cells; assay type: functional, cell-based
[9] = target: T3, Progesterone receptor (Homo sapiens); assay: Agonist efficacy towards human progesterone receptor (hPR) expressed in CV-1 cells; Not active; assay type: functional, cell-based
Progesterone receptor [10] = target: T4, Progesterone receptor; assay: Binding affinity to human progesterone receptor
Progesterone receptor [11] = target: T4, Progesterone receptor; assay: Effective concentration for agonist activity towards human progesterone receptor (hPR) expressed in CV-1 cells; Not active; assay type: functional, cell-based
Progesterone receptor [12] = target: T4, Progesterone receptor; assay: Inhibition of antagonist binding to human progesterone receptor (hPR); Not active

Row | Compound | Efficacy [1] [%] | IC50 (Androgen receptor) [µM] | Efficacy [2] | Efficacy [3] [%] | EC50 (Progesterone receptor [4]) [µM] | IC50 (Glucocorticoid receptor) [µM] | IC50 (Progesterone receptor [5]) | IC50 [6] [µM] | IC50 (Progesterone receptor [7]) [µM] | Efficacy [8] [%] | Efficacy [9] | Ki (Progesterone receptor [10]) [µM] | EC50 (Progesterone receptor [11]) | IC50 (Progesterone receptor [12])
1 | CC1=CC(C)(C)Nc2ccc3c(c21)C(=C1SCCCS1)Oc1ccc(F)cc1-3 | 92 | 0.18 | inactive | 151 | 0.0021 | 0.146 | Not Active | 0.681 | – | – | – | – | – | –
2 | CC(=O)/C=C1\Oc2ccc(F)cc2-c2ccc3c(c21)C(C)=CC(C)(C)N3 | – | – | – | – | – | – | – | – | 0.124 | 91 | inactive | > 0.1 | Not Active | –
3 | CC1=CC(C)(C)Nc2ccc3c(c21)C(=C(c1ccccc1)c1ccccc1)Oc1ccc(F)cc1-3 | – | – | – | – | – | – | – | – | 1.93 | 90 | inactive | > 0.1 | Not Active | –
4 | CCC/C=C1\Oc2ccc(F)cc2-c2ccc3c(c21)C(C)=CC(C)(C)N3 | – | – | inactive | 90 | 0.028 | – | – | – | – | – | – | 0.0031 | – | Not Active
5 | CC/C(C)=C1/Oc2ccc(F)cc2-c2ccc3c(c21)C(C)=CC(C)(C)N3 | – | – | – | 64 | 0.027 | – | – | – | 0.98 | 38 | – | 0.0167 | – | –
6 | CC1=CC(C)(C)Nc2ccc3c(c21)/C(=C/C#N)Oc1ccc(F)cc1-3 | – | – | – | 70 | 2.7 | – | – | – | 0.065 | 75 | – | 0.045 | – | –
7 | CC1=CC(C)(C)Nc2ccc3c(c21)/C(=C/C1CCCCC1)Oc1ccc(F)cc1-3 | – | – | – | 28 | 0.048 | – | – | – | 0.8 | 70 | – | > 0.1 | – | –
8 | C=C(/C=C1\Oc2ccc(F)cc2-c2ccc3c(c21)C(C)=CC(C)(C)N3)C(C)C | – | – | inactive | 122 | 0.029 | – | Not Active | – | – | – | – | 0.026 | – | –
9 | C=C1Oc2ccc(F)cc2-c2ccc3c(c21)C(C)=CC(C)(C)N3 | – | – | inactive | 87 | 1 | – | Not Active | – | – | – | – | 0.0061 | – | –
10 | CC1=CC(C)(C)Nc2ccc3c(c21)/C(=C/C=O)Oc1ccc(F)cc1-3 | – | – | – | – | – | – | – | – | 0.243 | 97 | inactive | > 0.1 | Not Active | –
11 | CC1=CC(C)(C)Nc2ccc3c(c21)/C(=C/c1ccccc1C)Oc1ccccc1-3 | – | – | inactive | – | – | – | Not Active | – | – | – | – | – | – | –
